Measured values: patent US20210000838A1, “COMBINATION THERAPY” (MEI Pharma, Inc., priority 2018, published 2021)

Columns and labels:
Format in all cases: cell-based
[1] = tested on: DOHH-2 cells; assay: ATPLite growth inhibition assay, DOHH-2 cells; settings: single agent, FIG. 10
Description: (§1) Cells were thawed from a liquid nitrogen preserved state. […] Assay plates were accepted if they pass the following quality control standards: relative luciferase values were consistent throughout the entire experiment, Z-factor scores were greater than 0.6, untreated/vehicle controls behaved consistently on the plate. […]

[2] = tested on: OCI-Ly3 cells; assay: ATPLite growth inhibition assay, OCI-Ly3 cells; settings: single agent, FIG. 10
Description: as §1

[3] = tested on: SU-DHL-10 cells; assay: ATPLite growth inhibition assay, SU-DHL-10 cells; settings: single agent, FIG. 10
Description: as §1

[4] = tested on: NU-DHL-1 cells; assay: ATPLite growth inhibition assay, NU-DHL-1 cells; settings: single agent, FIG. 10
Description: as §1

[5] = tested on: panel of 8 DLBCL cell lines; assay: ATPLite growth inhibition assay across panel of 8 DLBCL cell lines; settings: single agent, FIG. 9
[6] = tested on: Pfeiffer cells; assay: ATPLite growth inhibition assay, Pfeiffer cells; settings: single agent, FIG. 10
Description: as §1

[7] = tested on: OCI-Ly19 cells; assay: ATPLite growth inhibition assay, OCI-Ly19 cells; settings: single agent, FIG. 10
Description: as §1

## CN1CCC(c2ccccc2CC(C)(C)Nc2nc(N3CCOCC3)nc(-n3c(C(F)F)nc4ccccc43)n2)CC1 [Compound I, 4-(2-(difluoromethyl)-1H-benzo[d]imidazol-1-yl)-N-(2-methyl-1-(2-(1-methylpiperidin-4-yl)phenyl)propan-2-yl)-6-morpholino-1,3,5-triazin-2-amine]
[1]
  growth inhibition effect type: cytotoxic effects
[2]
  growth inhibition effect type: cytotoxic effects
[3]
  growth inhibition effect type: sub-cytostatic effects
[4]
  growth inhibition effect type: sub-cytostatic effects
[5]; all cell lines
  growth inhibition levels: > 50%
[5]; median across cell line panel, 72 hours
  GI50: 1730 nM
[6]
  growth inhibition effect type: sub-cytostatic effects
[7]
  growth inhibition effect type: cytotoxic effects
